From patent US7161029B2, “DiL-lysine monosulfate trihydrate crystal and method of making” (Ajinomoto Co., Inc., priority 2003, dated 2007)

Legend:
[1] = temperature range at which the trihydrate precipitates (35° C. and below)
Piglets = settings: compared with L-lysine hydrochloride; cited from earlier work

| Structure (SMILES) | degree of solubility in water versus the solubility curve of anhydrous diL-lysine sulfate (FIG. 4) [1] | feed effects (Piglets) |
| --- | --- | --- |
| NCCCC[C@H](N)C(=O)O.NCCCC[C@H](N)C(=O)O.O.O.O.O=S(=O)(O)O [diL-lysine monosulfate trihydrate] | lower than the degree of solubility that would be anticipated from the solubility curve of anhydrous diL-lysine sulfate |  |
| NCCCC[C@H](N)C(=O)O.NCCCC[C@H](N)C(=O)O.O=S(=O)(O)O [diL-lysine sulfate] |  | equivalent to those of L-lysine hydrochloride |
